Consider 1 compound from patent US20160375073A1, “COMPOSITION FOR TREATMENT OR PREVENTION OF OBESITY, CONTAINING WATER EXTRACTS OF FOMITELLA FRAXINEA” (POSTECH ACADEMY-INDUSTRY FOUNDATION, priority 2011, published 2016).

The structures appear in SMILES notation.

This experiment has as its system lipid absorption in the digestive tract. Put plainly: Amount of lipid absorption from the digestive tract into blood (14C-triolein, plasma radioactivity). Format: in vivo, mouse. Particulars: male Balb/c mice, oral 14C-triolein, plasma 6 hours after administration, relative to untreated control = 1; FIG. 3. As for the experimental part: Triolein (Amersham, 100 μCi/mL) radiolabeled with ^14C was mixed with 1% (w/v) sodium carboxylmethyl cellulose (CMC-Na) and 1% (v/v) Tween 80, and then 0.1 mL of the mixture was forcibly administered into each mouse through an oral zonde so that 1 μCi could be delivered to each mouse. Here, the mouse in the control group (an 8-week old male Balb/c with body weight of 25 g) was treated with 400 μg of Orlistat (20 mg/kg), which is used as an obesity treatment, and the mouse in the experimental group (an 8-week old male Balb/c with body weight of 25 g) was treated with 0.5 mL of the water extract (50 mg/mL) of Fomitella […] prepared in the Example after concentrating it into 0.1 mL. Six hours after the administration, blood samples were collected from the mice, and plasma was obtained by centrifuging the blood at […] at the rate of 14000 rpm, and the radioactive dose was measured by a liquid scintillator (Beta counter, Beckman LS1801). The control group was not treated with anything. The amount of lipid absorption was determined as a relative value by dividing the radioactive dose of each group into the radioactive dose of the control group, in which the radioactive dose of the control group was set at '1'. […] In particular, the result on the control group in FIG. 3 was obtained from the blood sample of a mouse not treated with any lipid absorption inhibitor.

For `CCCCCCCCCCC[C@@H](C[C@@H]1OC(=O)[C@H]1CCCCCC)OC(=O)[C@H](CC(C)C)NC=O` [Orlistat, orlistat], the “inhibitory effect upon lipid absorption” value is listed as “significant inhibitory effect upon lipid absorption”.
